Test system: kidney tissue of g-ddY mice
Assay: IPA upstream regulator analysis, g-ddY kidney RNA-seq
Settings: 30 mg/kg/day
[1] = ligand-dependent nuclear receptor

## CCCCN(CCCC)C(=O)CN1C[C@H](c2ccc3c(c2)OCO3)[C@@H](C(=O)O)[C@@H]1c1ccc(OC)cc1 [atrasentan, (2R,3R,4S)-4-(1,3-benzodioxol-5-yl)-1-[2-(dibutylamino)-2-oxoethyl]-2-(4-methoxyphenyl)pyrrolidine-3-carboxylic acid]
[1]
  AHR Activation z-score: 2.092
  AHR Predicted Activation State: Activated
  ESR1 Activation z-score: −2.439
  ESR1 Predicted Activation State: Inhibited
  ESRRA Activation z-score: 2.517
  ESRRA Predicted Activation State: Activated
  NR3C2 Activation z-score: −2.191
  NR3C2 Predicted Activation State: Inhibited
  NR4A1 Activation z-score: −2.488
  NR4A1 Predicted Activation State: Inhibited
  PPARA Activation z-score: 3.182
  PPARA Predicted Activation State: Activated
  PPARG Activation z-score: 3.581
  PPARG Predicted Activation State: Activated
  RXRA Activation z-score: 2.96
  RXRA Predicted Activation State: Activated
Transcription regulator
  ARNT2 Activation z-score: −2.079
  ARNT2 Predicted Activation State: Inhibited
  BCL6 Activation z-score: 2.514
  BCL6 Predicted Activation State: Activated
  CBX5 Activation z-score: 2.355
  CBX5 Predicted Activation State: Activated
  CCND1 Activation z-score: −3.003
  CCND1 Predicted Activation State: Inhibited
  CEBPD Activation z-score: −2.154
  CEBPD Predicted Activation State: Inhibited
  CTNNB1 Activation z-score: −3.373
  CTNNB1 Predicted Activation State: Inhibited
  DACH1 Activation z-score: 2.354
  DACH1 Predicted Activation State: Activated
  ECSIT Activation z-score: −2.72
  ECSIT Predicted Activation State: Inhibited
  EGR1 Activation z-score: −2.766
  EGR1 Predicted Activation State: Inhibited
  ELK1 Activation z-score: −2.151
  ELK1 Predicted Activation State: Inhibited
  ERG Activation z-score: −3.672
  ERG Predicted Activation State: Inhibited
  ETS1 Activation z-score: −2.096
  ETS1 Predicted Activation State: Inhibited
  FEV Activation z-score: −3.651
  FEV Predicted Activation State: Inhibited
  FOXC1 Activation z-score: −2.563
  FOXC1 Predicted Activation State: Inhibited
  FOXC2 Activation z-score: −3.361
  FOXC2 Predicted Activation State: Inhibited
  FOXF1 Activation z-score: −2.253
  FOXF1 Predicted Activation State: Inhibited
  FOXL2 Activation z-score: −3.108
  FOXL2 Predicted Activation State: Inhibited
  FOXM1 Activation z-score: −2.307
  FOXM1 Predicted Activation State: Inhibited
  FOXO3 Activation z-score: 2.338
  FOXO3 Predicted Activation State: Activated
  GATA1 Activation z-score: −3.309
  GATA1 Predicted Activation State: Inhibited
  GFI1 Activation z-score: 2.82
  GFI1 Predicted Activation State: Activated
  GPS2 Activation z-score: 2.51
  GPS2 Predicted Activation State: Activated
  HIF1A Activation z-score: −2.042
  HIF1A Predicted Activation State: Inhibited
  HNF1A Activation z-score: 4.107
  HNF1A Predicted Activation State: Activated
  HNF1B Activation z-score: 2.944
  HNF1B Predicted Activation State: Activated
  HNF4A Activation z-score: 4.856
  HNF4A Predicted Activation State: Activated
  HOXC6 Activation z-score: −2.35
  HOXC6 Predicted Activation State: Inhibited
  IKZF1 Activation z-score: 3.472
  IKZF1 Predicted Activation State: Activated
  IKZF3 Activation z-score: 3.165
  IKZF3 Predicted Activation State: Activated
  IRF7 Activation z-score: −4.492
  IRF7 Predicted Activation State: Inhibited
  IRF8 Activation z-score: −2.577
  IRF8 Predicted Activation State: Inhibited
  JUNB Activation z-score: −3.721
  JUNB Predicted Activation State: Inhibited
  KDM5A Activation z-score: −5.858
  KDM5A Predicted Activation State: Inhibited
  KLF2 Activation z-score: 2.742
  KLF2 Predicted Activation State: Activated
  KLF4 Activation z-score: −3.94
  KLF4 Predicted Activation State: Inhibited
  KLF15 Activation z-score: 3.401
  KLF15 Predicted Activation State: Activated
  KMT2A Activation z-score: −2.246
  KMT2A Predicted Activation State: Inhibited
  LHX1 Activation z-score: 4.214
  LHX1 Predicted Activation State: Activated
  MECP2 Activation z-score: −2.419
  MECP2 Predicted Activation State: Inhibited
  MEF2D Activation z-score: −3.056
  MEF2D Predicted Activation State: Inhibited
  MEOX2 Activation z-score: 2.54
  MEOX2 Predicted Activation State: Activated
  MESP1 Activation z-score: −2.646
  MESP1 Predicted Activation State: Inhibited
  MESP2 Activation z-score: −2.449
  MESP2 Predicted Activation State: Inhibited
  MLXIPL Activation z-score: 2.871
  MLXIPL Predicted Activation State: Activated
  MRTFA Activation z-score: −3.84
  MRTFA Predicted Activation State: Inhibited
  MRTFB Activation z-score: −4.734
  MRTFB Predicted Activation State: Inhibited
  MTPN Activation z-score: −2.942
  MTPN Predicted Activation State: Inhibited
  MYCN Activation z-score: 4.584
  MYCN Predicted Activation State: Activated
  Msx3 Activation z-score: −2
  Msx3 Predicted Activation State: Inhibited
  NCOA3 Activation z-score: −2.143
  NCOA3 Predicted Activation State: Inhibited
  NEUROG1 Activation z-score: 3
  NEUROG1 Predicted Activation State: Activated
  NFE2L2 Activation z-score: 3.389
  NFE2L2 Predicted Activation State: Activated
  NFKB1 Activation z-score: −3.239
  NFKB1 Predicted Activation State: Inhibited
  NRIP1 Activation z-score: −2.267
  NRIP1 Predicted Activation State: Inhibited
  PAX7 Activation z-score: −2.883
  PAX7 Predicted Activation State: Inhibited
  PCGF2 Activation z-score: 2
  PCGF2 Predicted Activation State: Activated
  PDX1 Activation z-score: −2.958
  PDX1 Predicted Activation State: Inhibited
  PITX2 Activation z-score: 3.976
  PITX2 Predicted Activation State: Activated
  PPARGC1A Activation z-score: 8.123
  PPARGC1A Predicted Activation State: Activated
  PPARGC1B Activation z-score: 2.664
  PPARGC1B Predicted Activation State: Activated
  PRDM1 Activation z-score: 2.281
  PRDM1 Predicted Activation State: Activated
  RB1 Activation z-score: 4.435
  RB1 Predicted Activation State: Activated
  REL Activation z-score: −2.451
  REL Predicted Activation State: Inhibited
  RELA Activation z-score: −4.344
  RELA Predicted Activation State: Inhibited
  RUNX3 Activation z-score: 3.355
  RUNX3 Predicted Activation State: Activated
  SMAD2 Activation z-score: −2.323
  SMAD2 Predicted Activation State: Inhibited
  SMAD3 Activation z-score: −2.952
  SMAD3 Predicted Activation State: Inhibited
  SMAD4 Activation z-score: −2.417
  SMAD4 Predicted Activation State: Inhibited
  SMAD7 Activation z-score: 3.504
  SMAD7 Predicted Activation State: Activated
  SMARCA4 Activation z-score: −3.211
  SMARCA4 Predicted Activation State: Inhibited
  SMYD1 Activation z-score: 2.213
  SMYD1 Predicted Activation State: Activated
  SNAI1 Activation z-score: −2.699
  SNAI1 Predicted Activation State: Inhibited
  SOX4 Activation z-score: −2.397
  SOX4 Predicted Activation State: Inhibited
  SP1 Activation z-score: −2.444
  SP1 Predicted Activation State: Inhibited
  SPDEF Activation z-score: 4.415
  SPDEF Predicted Activation State: Activated
  SPI1 Activation z-score: −3.51
  SPI1 Predicted Activation State: Inhibited
  SPIB Activation z-score: −2.933
  SPIB Predicted Activation State: Inhibited
  SPZ1 Activation z-score: −2.022
  SPZ1 Predicted Activation State: Inhibited
  SREBF2 Activation z-score: 2.277
  SREBF2 Predicted Activation State: Activated
  SRF Activation z-score: −3.269
  SRF Predicted Activation State: Inhibited
  SRSF2 Activation z-score: 2.328
  SRSF2 Predicted Activation State: Activated
  STAT1 Activation z-score: −3.918
  STAT1 Predicted Activation State: Inhibited
  STAT3 Activation z-score: −4.716
  STAT3 Predicted Activation State: Inhibited
  STAT4 Activation z-score: −2.401
  STAT4 Predicted Activation State: Inhibited
  TCF4 Activation z-score: −2.836
  TCF4 Predicted Activation State: Inhibited
  TCF7L1 Activation z-score: 2.373
  TCF7L1 Predicted Activation State: Activated
  TEAD1 Activation z-score: −3.036
  TEAD1 Predicted Activation State: Inhibited
  TEAD2 Activation z-score: −3.153
  TEAD2 Predicted Activation State: Inhibited
  TEAD3 Activation z-score: −3.638
  TEAD3 Predicted Activation State: Inhibited
  TEAD4 Activation z-score: −2.143
  TEAD4 Predicted Activation State: Inhibited
  TFAP2C Activation z-score: 2.899
  TFAP2C Predicted Activation State: Activated
  TFEB Activation z-score: 2.587
  TFEB Predicted Activation State: Activated
  TP53 Activation z-score: −3.365
  TP53 Predicted Activation State: Inhibited
  TWIST1 Activation z-score: −2.987
  TWIST1 Predicted Activation State: Inhibited
  Tcf7 Activation z-score: −3.984
  Tcf7 Predicted Activation State: Inhibited
  XBP1 Activation z-score: 3.505
  XBP1 Predicted Activation State: Activated
  YAP1 Activation z-score: −4.255
  YAP1 Predicted Activation State: Inhibited
